Structures are written as SMILES.

This experiment has as its target Prothrombin (Homo sapiens) (UniProt P00734). Kind of experiment: Relative prothrombin time was determined as the activity of the test ODN (oligodeoxynucleotide) relative to that of GS-522.
In turn, `Cc1cn([C@H]2C[C@H](OP(=O)(O)OC[C@H]3O[C@@H](n4cc(C)c(=O)[nH]c4=O)C[C@@H]3OP(=O)(O)OC[C@H]3O[C@@H](n4cnc5c(=O)[nH]c(=N)[nH]c54)C[C@@H]3OP(=O)(O)OC[C@H]3O[C@@H](n4cnc5c(=O)nc(N)[nH]c54)C[C@@H]3O)[C@@H](COCO[C@H]3C[C@H](n4cnc5c(=O)[nH]c(=N)[nH]c54)O[C@@H]3COP(=O)(O)O[C@H]3C[C@H](n4cnc5c(=O)nc(N)[nH]c54)O[C@@H]3COP(=O)(O)O[C@H]3C[C@H](n4cc(C)c(=O)[nH]c4=O)O[C@@H]3COP(=O)(O)O[C@H]3C[C@H](n4cnc5c(=O)nc(N)[nH]c54)O[C@@H]3COP(=O)(O)O[C@H]3C[C@H](n4cc(C)c(=O)[nH]c4=O)O[C@@H]3COP(=O)(O)O[C@H]3C[C@H](n4cnc5c(=O)[nH]c(=N)[nH]c54)O[C@@H]3COP(=O)(O)O[C@H]3C[C@H](n4cnc5c(=O)nc(N)[nH]c54)O[C@@H]3COP(=O)(O)O[C@H]3C[C@H](n4cc(C)c(=O)[nH]c4=O)O[C@@H]3COP(=O)(O)O[C@H]3C[C@H](n4cc(C)c(=O)[nH]c4=O)O[C@@H]3COP(=O)(O)O[C@H]3C[C@H](n4cnc5c(=O)[nH]c(=N)[nH]c54)O[C@@H]3COP(=O)(O)O[C@H]3C[C@H](n4cnc5c(=O)nc(N)[nH]c54)O[C@@H]3COP(=O)(O)O)O2)c(=O)[nH]c1=O` displayed a Relative PT of 0.8.

`Cc1cn([C@H]2C[C@H](OP(=O)(O)OC[C@H]3O[C@@H](n4cnc5c(=O)nc(N)[nH]c54)C[C@@H]3OP(=O)(O)OC[C@H]3O[C@@H](n4cnc5c(=O)[nH]c(=N)[nH]c54)C[C@@H]3OP(=O)(O)OC[C@H]3O[C@@H](n4cc(C)c(=O)[nH]c4=O)C[C@@H]3OP(=O)(O)OC[C@H]3O[C@@H](n4cc(C)c(=O)[nH]c4=O)C[C@@H]3OP(=O)(O)OC[C@H]3O[C@@H](n4cnc5c(=O)[nH]c(=N)[nH]c54)C[C@@H]3OP(=O)(O)OC[C@H]3O[C@@H](n4cnc5c(=O)nc(N)[nH]c54)C[C@@H]3O)[C@@H](COCO[C@H]3C[C@H](n4cnc5c(=O)nc(N)[nH]c54)O[C@@H]3COP(=O)(O)O[C@H]3C[C@H](n4cc(C)c(=O)[nH]c4=O)O[C@@H]3COP(=O)(O)O[C@H]3C[C@H](n4cnc5c(=O)[nH]c(=N)[nH]c54)O[C@@H]3COP(=O)(O)O[C@H]3C[C@H](n4cnc5c(=O)nc(N)[nH]c54)O[C@@H]3COP(=O)(O)O[C@H]3C[C@H](n4cc(C)c(=O)[nH]c4=O)O[C@@H]3COP(=O)(O)O[C@H]3C[C@H](n4cc(C)c(=O)[nH]c4=O)O[C@@H]3COP(=O)(O)O[C@H]3C[C@H](n4cnc5c(=O)nc(N)[nH]c54)O[C@@H]3COP(=O)(O)O[C@H]3C[C@H](n4cnc5c(=O)nc(N)[nH]c54)O[C@@H]3COP(=O)(O)O)O2)c(=O)[nH]c1=O` came in with a Relative PT of 1.1.

`Cc1cn([C@H]2C[C@H](OP(=O)(O)OC[C@H]3O[C@@H](n4cnc5c(=O)nc(N)[nH]c54)C[C@@H]3OP(=O)(O)OC[C@H]3O[C@@H](n4cnc5c(=O)[nH]c(=N)[nH]c54)C[C@@H]3OP(=O)(O)OC[C@H]3O[C@@H](n4cc(C)c(=O)[nH]c4=O)C[C@@H]3OP(=O)(O)OC[C@H]3O[C@@H](n4cnc5c(=O)nc(N)[nH]c54)C[C@@H]3OP(=O)(O)OC[C@H]3O[C@@H](n4cc(C)c(=O)[nH]c4=O)C[C@@H]3OP(=O)(O)OC[C@H]3O[C@@H](n4cnc5c(=O)nc(N)[nH]c54)C[C@@H]3OP(=O)(O)OC[C@H]3O[C@@H](n4cnc5c(=O)[nH]c(=N)[nH]c54)C[C@@H]3OP(=O)(O)OC[C@H]3O[C@@H](n4cc(C)c(=O)[nH]c4=O)C[C@@H]3OP(=O)(O)OC[C@H]3O[C@@H](n4cc(C)c(=O)[nH]c4=O)C[C@@H]3OP(=O)(O)OC[C@H]3O[C@@H](n4cnc5c(=O)[nH]c(=N)[nH]c54)C[C@@H]3OP(=O)(O)OC[C@H]3O[C@@H](n4cnc5c(=O)nc(N)[nH]c54)C[C@@H]3O)[C@@H](COP(=O)(O)O[C@H]3C[C@H](n4cc(C)c(=O)[nH]c4=O)O[C@@H]3COP(=O)(O)O[C@H]3C[C@H](n4cnc5c(=O)[nH]c(=N)[nH]c54)O[C@@H]3COCO[C@H]3C[C@H](n4cnc5c(=O)nc(N)[nH]c54)O[C@@H]3COP(=O)(O)O)O2)c(=O)[nH]c1=O` gave a Relative PT of 0.9.

Turning to `Cc1cn([C@H]2C[C@H](OCOC[C@H]3O[C@@H](n4cc(C)c(=O)[nH]c4=O)C[C@@H]3OP(=O)(O)OC[C@H]3O[C@@H](n4cnc5c(=O)nc(N)[nH]c54)C[C@@H]3OP(=O)(O)OC[C@H]3O[C@@H](n4cnc5c(=O)[nH]c(=N)[nH]c54)C[C@@H]3OP(=O)(O)OC[C@H]3O[C@@H](n4cc(C)c(=O)[nH]c4=O)C[C@@H]3OP(=O)(O)OC[C@H]3O[C@@H](n4cnc5c(=O)nc(N)[nH]c54)C[C@@H]3OP(=O)(O)OC[C@H]3O[C@@H](n4cc(C)c(=O)[nH]c4=O)C[C@@H]3OP(=O)(O)OC[C@H]3O[C@@H](n4cnc5c(=O)nc(N)[nH]c54)C[C@@H]3OP(=O)(O)OC[C@H]3O[C@@H](n4cnc5c(=O)[nH]c(=N)[nH]c54)C[C@@H]3OP(=O)(O)OC[C@H]3O[C@@H](n4cc(C)c(=O)[nH]c4=O)C[C@@H]3OP(=O)(O)OC[C@H]3O[C@@H](n4cc(C)c(=O)[nH]c4=O)C[C@@H]3OP(=O)(O)OC[C@H]3O[C@@H](n4cnc5c(=O)[nH]c(=N)[nH]c54)C[C@@H]3OP(=O)(O)OC[C@H]3O[C@@H](n4cnc5c(=O)nc(N)[nH]c54)C[C@@H]3O)[C@@H](COP(=O)(O)O[C@H]3C[C@H](n4cnc5c(=O)[nH]c(=N)[nH]c54)O[C@@H]3COP(=O)(O)O[C@H]3C[C@H](n4cnc5c(=O)nc(N)[nH]c54)O[C@@H]3COP(=O)(O)O)O2)c(=O)[nH]c1=O`, the Relative PT is 1.1.

The compound `Cc1cn([C@H]2C[C@H](OCOC[C@H]3O[C@@H](n4cnc5c(=O)nc(N)[nH]c54)C[C@@H]3OP(=O)(O)OC[C@H]3O[C@@H](n4cnc5c(=O)[nH]c(=N)[nH]c54)C[C@@H]3OP(=O)(O)OC[C@H]3O[C@@H](n4cc(C)c(=O)[nH]c4=O)C[C@@H]3OCOC[C@H]3O[C@@H](n4cnc5c(=O)[nH]c(=N)[nH]c54)C[C@@H]3OP(=O)(O)OC[C@H]3O[C@@H](n4cc(C)c(=O)[nH]c4=O)C[C@@H]3OP(=O)(O)OC[C@H]3O[C@@H](n4cnc5c(=O)nc(N)[nH]c54)C[C@@H]3OP(=O)(O)OC[C@H]3O[C@@H](n4cnc5c(=O)[nH]c(=N)[nH]c54)C[C@@H]3OP(=O)(O)OC[C@H]3O[C@@H](n4cc(C)c(=O)[nH]c4=O)C[C@@H]3OP(=O)(O)OC[C@H]3O[C@@H](n4cc(C)c(=O)[nH]c4=O)C[C@@H]3OP(=O)(O)OC[C@H]3O[C@@H](n4cnc5c(=O)[nH]c(=N)[nH]c54)C[C@@H]3OP(=O)(O)OC[C@H]3O[C@@H](n4cnc5c(=O)nc(N)[nH]c54)C[C@@H]3O)[C@@H](COP(=O)(O)O[C@H]3C[C@H](n4cc(C)c(=O)[nH]c4=O)O[C@@H]3COP(=O)(O)O[C@H]3C[C@H](n4cnc5c(=O)[nH]c(=N)[nH]c54)O[C@@H]3COP(=O)(O)O[C@H]3C[C@H](n4cnc5c(=O)[nH]c(=N)[nH]c54)O[C@@H]3COP(=O)(O)O)O2)c(=O)[nH]c1=O` showed a Relative PT of 0.3.

`Cc1cn([C@H]2C[C@H](OCOC[C@H]3O[C@@H](n4cnc5c(=O)[nH]c(=N)[nH]c54)C[C@@H]3OP(=O)(O)OC[C@H]3O[C@@H](n4cnc5c(=O)nc(N)[nH]c54)C[C@@H]3O)[C@@H](COP(=O)(O)O[C@H]3C[C@H](n4cc(C)c(=O)[nH]c4=O)O[C@@H]3COP(=O)(O)O[C@H]3C[C@H](n4cnc5c(=O)[nH]c(=N)[nH]c54)O[C@@H]3COP(=O)(O)O[C@H]3C[C@H](n4cnc5c(=O)nc(N)[nH]c54)O[C@@H]3COP(=O)(O)O[C@H]3C[C@H](n4cc(C)c(=O)[nH]c4=O)O[C@@H]3COP(=O)(O)O[C@H]3C[C@H](n4cnc5c(=O)[nH]c(=N)[nH]c54)O[C@@H]3COP(=O)(O)O[C@H]3C[C@H](n4cc(C)c(=O)[nH]c4=O)O[C@@H]3COP(=O)(O)O[C@H]3C[C@H](n4cnc5c(=O)[nH]c(=N)[nH]c54)O[C@@H]3COP(=O)(O)O[C@H]3C[C@H](n4cnc5c(=O)nc(N)[nH]c54)O[C@@H]3COP(=O)(O)O[C@H]3C[C@H](n4cc(C)c(=O)[nH]c4=O)O[C@@H]3COP(=O)(O)O[C@H]3C[C@H](n4cc(C)c(=O)[nH]c4=O)O[C@@H]3COP(=O)(O)O[C@H]3C[C@H](n4cnc5c(=O)nc(N)[nH]c54)O[C@@H]3COP(=O)(O)O[C@H]3C[C@H](n4cnc5c(=O)nc(N)[nH]c54)O[C@@H]3COP(=O)(O)O)O2)c(=O)[nH]c1=O` gave a Relative PT of 0.6.

For the compound `Cc1cn([C@H]2C[C@H](OCOC[C@H]3O[C@@H](n4cnc5c(=O)[nH]c(=N)[nH]c54)C[C@@H]3OP(=O)(O)OC[C@H]3O[C@@H](n4cnc5c(=O)nc(N)[nH]c54)C[C@@H]3O)[C@@H](COP(=O)(O)O[C@H]3C[C@H](n4cc(C)c(=O)[nH]c4=O)O[C@@H]3COP(=O)(O)O[C@H]3C[C@H](n4cnc5c(=O)[nH]c(=N)[nH]c54)O[C@@H]3COP(=O)(O)O[C@H]3C[C@H](n4cnc5c(=O)nc(N)[nH]c54)O[C@@H]3COCO[C@H]3C[C@H](n4cc(C)c(=O)[nH]c4=O)O[C@@H]3COP(=O)(O)O[C@H]3C[C@H](n4cnc5c(=O)[nH]c(=N)[nH]c54)O[C@@H]3COP(=O)(O)O[C@H]3C[C@H](n4cc(C)c(=O)[nH]c4=O)O[C@@H]3COP(=O)(O)O[C@H]3C[C@H](n4cnc5c(=O)[nH]c(=N)[nH]c54)O[C@@H]3COP(=O)(O)O[C@H]3C[C@H](n4cnc5c(=O)nc(N)[nH]c54)O[C@@H]3COP(=O)(O)O[C@H]3C[C@H](n4cc(C)c(=O)[nH]c4=O)O[C@@H]3COP(=O)(O)O[C@H]3C[C@H](n4cc(C)c(=O)[nH]c4=O)O[C@@H]3COP(=O)(O)O[C@H]3C[C@H](n4cnc5c(=O)nc(N)[nH]c54)O[C@@H]3COP(=O)(O)O[C@H]3C[C@H](n4cnc5c(=O)[nH]c(=N)[nH]c54)O[C@@H]3COP(=O)(O)O)O2)c(=O)[nH]c1=O`, the Relative PT stood at 0.4.

(Values after ChEMBL document CHEMBL1131152, “In vitro and in vivo activities of oligodeoxynucleotide-based thrombin inhibitors containing neutral formacetal linkages” (J Med Chem, 1998).)
